Experimental data taken from US11104633B2, “Cancer treatment using compounds that selectively target polyploid cancer cells for disruption” (Chengdu Anticancer Bioscience, Ltd., priority 2017, dated 2021).

Tests used:
MM-BRAF cells = assay: Cell death / polyploidy in parental lung cancer cells; type: cell-based, mouse
RPE-MYC cells [1] = assay: VX-680-induced cell death in RPE-MYC cells and derivatives; type: cell-based
Source text: (§1) The p53 function in RPE-Myc cells can be interfered with by either a small molecule inhibitor of p53, PFT-a, (FIG. 1A), or a dominant negative p53 mutant (FIG. 1B). […] In contrast, either of these reagents conferred more than 70% protection against the cytotoxicity elicited by hydroxyurea (FIG. 1A-B), confirming that the p53 function was compromised. The conclusion was that p53 was not required for the apoptosis elicited by VX-680 in cells overexpressing MYC.
Survival signals are often mediated by the Ras-PI3K-Akt pathway. Overexpression of an active Hu-Ras^V12 elicited profound senescence in RPE-MYC cells, prevented generation of stable cell lines expressing Hu-Ras^V12, but were able to generate RPE-MYC cells expressing an active allele of MyrAkt. […] Thus, active signaling from Akt enhanced, rather than blocked, the apoptosis elicited by VX-680. The BCL family antiapoptotic factor Bcl2 is a critical regulator of mitochondrion-dependent apoptotic pathway by inhibiting cytochrome C release from mitochondria, whereas XIAP, the most characterized member of the IAP family, has been known to sequester and inactivate active caspases, proteases responsible for apoptosis. The overexpression of Bcl2 or Bcl-xL provided more than 40% protection against the cytotoxicity of VX-680 six days after administration of VX-680 (see, FIGS. 1C and 2) and that overexpression of XIAP has no effect on the MYC-dependent cytotoxicity (FIG. 1C).
Various RPEMYC derivatives used in this study were generated by stably transfecting human RPEMYC cells with a construct that expresses the gene of interest and selecting with 1 μg/ml of puromycin. Breast cancer cell line MD231MYC/Bcl2 was generated by engineering human MDA-MB-231 to stably express MYC and Bcl2. Lung cancer cell line MM-BRAF was created from mouse lung cancer model initiated by BRAF^V600E. All cell lines were cultured in DMEM supplemented with 10% fetal bovine serum and antibiotics at 5% CO2 and 95% air in a humidified incubator.
(§2) Cell death assays in response to drug treatment were performed 24 h after cells were seeded in 24-well plates. Each experiment was done in triplicate and each experiment was repeated at least twice unless indicated otherwise. Dead cells were identified by the trypan blue exclusion assay. All values are expressed as mean±1 SD of the mean.

RPE-MYC cells [2] = assay: Hydroxyurea cytotoxicity in RPE-Myc cells (p53 function control); type: cell-based, human; conditions: p53 inhibition; FIG. 1A
Source text: as §1, §2

Compound: COc1cc(Nc2ncc3c(n2)-c2ccc(Cl)cc2C(c2c(F)cccc2OC)=NC3)ccc1C(=O)O [MLN8237]
- effect on lung cancer cells (MM-BRAF cells; FIG. 6A legend): cytostatic effect
- induction of polyploidy (MM-BRAF cells; FIG. 6B legend): develop polyploidy

Compound: Cc1ccc(C(=O)Cn2c3c(sc2=N)CCCC3)cc1 [PFT-a]
- protection from VX-680-induced cell death (RPE-MYC cells [1]; p53 inhibition, FIG. 1A): Neither of these reagents protected
- protection against the cytotoxicity elicited by hydroxyurea (RPE-MYC cells [2]): more than 70%

Compound: Cc1cc(Nc2cc(N3CCN(C)CC3)nc(Sc3ccc(NC(=O)C4CC4)cc3)n2)[nH]n1 [VX-680]
- cell death on exposure (MM-BRAF cells; in vitro, FIG. 6A): failed to undergo cell death
- induction of multinucleation and polyploidy (MM-BRAF cells; treatment for 4 days, FIG. 6B): all cells became multinucleated and polyploid
- effect of overexpression of XIAP on the MYC-dependent cytotoxicity (RPE-MYC cells [1]; FIG. 1C): no effect
- sensitivity to cytotoxicity, cells expressing Myc and active Akt versus Myc alone (RPE-MYC cells [1]; RPE cells expressing both Myc and active Akt, FIG. 1C): moderately more sensitive
- protection against the cytotoxicity by overexpression of Bcl2 or Bcl-xL (RPE-MYC cells [1]; six days after administration, FIGS. 1C and 2): more than 40%
